Laboratory results taken from patent US5248771A, “Process for preparing no-carrier-added radiohalogenated vinyl nucleosides” (Triumf, priority 1991, dated 1993).
Read-outs that look alike come from different tables or passages of the source.

What was measured:
[1] = cited from earlier work
[2] = cited from earlier work; remark: listed apart in the source
[3] = test system: herpes virus; conditions: depending on the strain of herpes virus; cited from earlier work
[4] = test system: herpes infected tissue; conditions: S. Sacks, Abstract 97, 1988 Interscience Conference; cited from earlier work
[5] = test system: HSV-1 (ATCC Strain F); test: [125I]IVaraU uptake into HFF cells infected with HSV-1, gamma activity per tube; type: cell-based, HSV-1; HFF (Human Foreskin Fibroblast) cells; conditions: HSV-1 (ATCC Strain F) infected HFF cells, MOI 1.0, 2.3×10^6 cpm/ml, 6 hours, 37° C.
Experimental: (§1) Upright roller tubes were seeded with 1.5×10^5 HFF (Human Foreskin Fibroblast) cells/tube in a volume of 1.0 ml of Minimal Essential Medium (MEM) with added 5% FCS (Fetal Calf Serum) and incubated at 37° C. overnight. The growth media was poured off and replaced with 1.0 ml of viral growth media (Med 199 Hank's salts with 2% FCS) containing ^125 I-IVaraU (2.3×10^6 cpm/ml). 100 μl of virus (diluted to appropriate concentration in viral growth media) was added to assay tubes. In this case, a multiplicity of infection of 1.0 was used. 100 μl of viral growth media was added to the control (viral uninoculated) tubes.
(§2) The tubes were centrifuged 5000 g×30 minutes at 37° C., incubated at 37° C., 5% CO2 for 6 hours, and the media was then poured off. The tubes were washed with 4×2 mls warm "cell" phosphate buffered saline (PBS), and 1.0 ml of trypsin-versene solution was added and the tubes were incubated at 37° C. for 5-10 minutes. The cell sheets were removed and transferred to 4 ml polystyrene tubes. The gamma activity was counted with a Gamma counter.

[6] = test system: herpes simplex virus 1 (HSV1); test: in vivo; parameters: species or system HSV1; A/J mice
From the text: (§3) This example measured the biodistribution of [^125 I]-IVaraU in the bodies of mice infected with HSV throughout the entire body. The brain was emphasized. Various uninfected controls were included to make the interpretation clear.
(§4) […] strain A/J mice were used in all: (i) with [^125 I]IVaraU, 20 mice received HSV1 and 20 mice were uninfected; and (ii) with [^125 I]NaI (a control compared to IVaraU), again 20 mice received HSV1 and 20 mice were uninfected.
(§5) INFECTION: Seven days prior to injection of the drug, each A/J mouse was inoculated by scratching the lip and applying a suspension of herpes simplex virus 1 (HSV1); this was the Kastrukoff murine-adapted strain of HSV1. This inoculation technique is a literature technique which has been established to cause herpes foci of herpes infection in the brains of over 99% of mice so inoculated. See Kastrukoff LF, Lau AS, and Puterman ML. J Gen Virol 67 (1986) 613-621. The HSV1 inoculation may be considered to take place at time "zero minus seven days". ADMINISTRATION OF THE RADIOPHARMACEUTICAL: The mice were divided into four experimental groups based on the two variables +/- HSV1, and IVaraU/NaI. The infected mice were being compared to non-infected mice. The radiopharmaceutical ([^125 I]IVaraU or [^125 I]NaI) was diluted to give 1μ Curie per 100 μL. 100 μL was then injected into the tailvein of each mouse. (Injection may be considered to take place at "time zero".) ANALYSIS OF INDIVIDUAL BODY ORGANS: At times 1h, 4h, 24h, and 48h, 5 mice were taken from each experimental group and sacrificed by exsanguination (the carotid artery was severed with a surgical scalpel). Blood was collected. Each animal was dissected, and the following organs were removed: brain, liver, kidney, pancreas, spleen, stomach, heart, lung, and muscle. Each organ or tissue specimen was weighed and then ^125 I activity was counted in a gamma ray counter. From the data weight, ^125 I, and ^125 I injected dose result values of "% dose per gram" were calculated for the different tissue specimens.

[7] = in vivo; parameters: species or system HSV1; A/J mice; conditions: mouse, in vivo, iv, 1 μCurie in 100 μL i.v. tail vein, read-out: brain uptake, % dose per gram in entire brain
From the text: as §3, §4, §5

[8] = test system: HSV 1 infected cells; test: uptake of [125I]IVaraU by HSV 1 infected cells compared with uninfected and HSV 2 infected cells; type: cell-based
Experimental: as §1
as §2, with “counter. […]” for “counter.”

[9] = test system: HSV1 strain KOS; test: [125I]IVaraU uptake in rabbit brain infected with HSV1, gamma counts of brain blocks; type: in vivo, HSV1; New Zealand White rabbits
Experimental: The rabbit brains were infected with HSV1and then [^125 I]IVaraU was injected. The infection was located by assaying for herpes antigen and also by considering the brain anatomy involved. The assay was performed for [^125 I]IVaraU by gamma ray counts on segments cut from the brain.
INFECTION: Three New Zealand White female rabbits ([…], 2.5-5.0 kg) were anaesthetized by standard intramuscular injections of ketamine and xylazine. A 3.5 inch french tomcat catheter was introduced into the right nostril and 100 μL of the virus inoculation solution was released onto the right cribiform plate (this is a non-invasive means to create a brain infection). The virus inoculation solution consisted of 3.7×10^6 plaque forming units per mL HSV1 strain KOS suspended in commercial media of the type "199 with Hanks' salts". Two rabbits denoted "A" and "B" received the virus suspension exactly as described. A third rabbit denoted "C" was a "control"; it received 100 μL "199 with Hanks' salts" but no virus. The three rabbits were returned to their cages; infection was allowed to develop for 5 days before the injection of [^125 I]VaraU was carried out. INJECTION OF DRUG: 5 days following HSV1 inoculation, each rabbit was given 0.1 to 0.2 millicuries [^125 I]IVaraU suspended in 1 mL standard phosphate buffered saline PBS). The drug was administered by injection into the right marginal ear vein. SACRIFICE OF THE RABBITS: 24H after the [^125 I]IVaraU injection, the rabbits were sacrificed by an overdose of the drug Somnotol (T.M.) (MTC Pharmaceuticals). Following death, each rabbit was perfused with 300-400 mL PBS introduced into the ascending aorta. (The perfusion procedure served to remove blood from vessels in the brain and the body in general.)
The skull was dissected; the brain was cut out and removed. The brain was then sectioned into thirty 0.5 cm thick coronal blocks. The cutting and numbering of the blocks was carried out in a systematic way with respect to brain anatomy. Brain blocks were immersed and stored in 10% formalin. COUNTING OF ^125 I ACTIVITY IN BRAIN BLOCKS: Each block was weighed and then counted in a well-type gamma ray counter. The "counts per minute per gram" was calculated for each block of tissue for rabbits "A", "B" and "C". From each "cpm per gram" in infected rabbits "A" and "B" was subtracted the "cpm per gram" in the corresponding brain block from the uninfected rabbit "C". (The typical value of "cpm per gram" was about 20,000 cpm per gram in rabbit "C".)

[10] = test system: HSV-2 (ATCC Strain G); test: [125I]IVaraU uptake into HFF cells infected with HSV-2, gamma activity per tube; type: cell-based, HSV-2; HFF (Human Foreskin Fibroblast) cells; conditions: HSV-2 (ATCC Strain G) infected HFF cells, MOI 1.0, 2.3×10^6 cpm/ml, 6 hours, 37° C.
Experimental: as §1, §2

[11] = test system: HFF (Human Foreskin Fibroblast) cells; test: [125I]IVaraU uptake into uninoculated HFF cells (control), gamma activity per tube; type: cell-based; conditions: 2.3×10^6 cpm/ml, 6 hours, 37° C.
Experimental: as §1, §2

For `O=c1[nH]c(=O)n([C@@H]2O[C@H](CO)[C@@H](O)[C@@H]2O)cc1/C=C/Br` [BrVaraU, (E)-5(2 bromo vinyl)-arabinofuranosyl uracil], the “metabolic stability in vivo” value [1] is listed as “appeared metabolically stable in vivo”.
For `O=c1[nH]c(=O)n([C@@H]2O[C@H](CO)[C@@H](O)[C@@H]2O)cc1/C=C/Cl` [ClVaraU], the “potency in vivo per unit weight” value [2] is given as “less potent in vivo”.
In the case of `O=c1[nH]c(=O)n([C@@H]2O[C@H](CO)[C@@H](O)[C@@H]2O)cc1/C=C/F` [FVaraU], the “potency in vivo per unit weight” value [2] is listed as “less potent in vivo”.
For `O=c1[nH]c(=O)n([C@@H]2O[C@H](CO)[C@@H](O)[C@@H]2O)cc1/C=C/I` [IVaraU], the “metabolic stability in vivo” value [1] is listed as “appeared metabolically stable in vivo”, the “concentration effectively inhibiting herpes virus” value [3] is listed as “approximately 1×10^-9 g/mL” and the “potency in vivo per unit weight” value [2] is listed as “highly potent in vivo per unit weight”.
For `O=c1[nH]c(=O)n([C@@H]2O[C@H](CO)[C@@H](O)[C@@H]2O)cc1/C=C/[123I]` [[^123 I]IVaraU], the “concentrated in herpes infected tissue” value [4] is given as “concentrated in herpes infected tissue”.
With `O=c1[nH]c(=O)n([C@@H]2O[C@H](CO)[C@@H](O)[C@@H]2O)cc1/C=C/[125I]` [[^125 I]IVaraU] the “Activity/Tube (Average)” value [5] was 59,914 cpm, the “brain uptake Ratio infected/uninfected” value ([6]; 1H) was 1.18 and the “brain uptake Ratio infected/uninfected” value ([6]; 4H) was 1.57. The “brain uptake Ratio infected/uninfected” value ([6]; 24H) was 15.8, the “brain uptake Ratio infected/uninfected” value ([6]; 48H) was 36.2 and the tissue uptake at 1 h ([7]; Infected) was 1.49 %ID/g. It also gave a tissue uptake at 4 h ([7]; Infected) of 0.36 %ID/g, a tissue uptake at 24 h ([7]; Infected) of 0.0379 %ID/g and a tissue uptake at 48 h ([7]; Infected) of 0.0181 %ID/g. For the same compound, the tissue uptake at 1 h ([7]; Uninfected) was 1.27 %ID/g, the tissue uptake at 4 h ([7]; Uninfected) was 0.229 %ID/g and the tissue uptake at 24 h ([7]; Uninfected) was 0.0024 %ID/g. For the same compound, the tissue uptake at 48 h ([7]; Uninfected) was 0.0005 %ID/g, the “uptake by HSV 1 vs HSV 2 infected cells” value ([8]; HSV 1 vs HSV 2 infected cells) was “HSV 1 infected cells took up more radio compound than HSV 2 infected cells” and the “specific uptake by HSV 1 infected cells” value ([8]; vs uninfected cells) was “taken up specifically by HSV 1 infected cells, as compared with uninfected cells”. For the same compound, the “(corrected) activities in brain regions” value ([9]; infected rabbits A and B minus uninfected C, forebrain) was “higher in the forebrain, especially in the olfactory lobes”, the “activities towards the hindbrain” value ([9]; infected rabbits, corrected) was “approached background” and the “activity in right olfactory lobe vs trigeminal ganglia and Level 1” value ([9]; infected rabbits, corrected) was “higher than in the trigeminal ganglia and Level 1”. For the same compound, the “activity in right vs left olfactory lobe” value ([9]; infected rabbits, corrected, virus given in right nostril) was “higher in the right olfactory lobe than the left”, the “typical cpm per gram in brain blocks of uninfected rabbit C” value ([9]; uninfected rabbit "C", 24H after 0.1 to 0.2 millicuries i.v.) was “about 20,000 cpm per gram” and the “Activity/Tube (Average)” value [10] was 14,462 cpm. For the same compound, the “Activity/Tube (Average)” value [11] was 1,332 cpm.
